Consider 19 compounds from PubChem BioAssay (NCI).

Common to all, as to experiment: NCI tumour cell line growth inhibition, 48 h
Assay [1] relates to HS 578T breast.
Assay [2] deals with MDA-MB-231 breast.
Assay [3] concerns NCI-H23 lung.
Assay [4] has as its system OVCAR-3 ovarian.
Assay [5] deals with RPMI-8226 leukemia.
The test system of assay [6] is RXF 393 renal.
In assay [7] the test system is UO-31 renal.
The test system of assay [8] is T-47D breast.

“And” between values parts separate entries of the source, which are not always exact repeats. Equal values may be shown once.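 Results reflect a 48-hour exposure of cells in 96-well plates to compound at five concentrations. Here, GI50 denotes the concentration required for 50% inhibition of growth. TGI marks complete inhibition of growth.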

Consider `CCN1CCCCC(=N\O)/C(=N/O)CCCC1`, for which the TGI in assay [1], in assay [2], in assay [3], in assay [4], in assay [5] and in assay [6] was above 100 µM in each case. Moreover, in assay [7], the TGI was above 100 µM.

Regarding `C=C1C(=O)O[C@H]2[C@H]1CC/C(COC(=O)C(=O)c1cn(C)c3ccc(OC)cc13)=C\CC[C@@]1(C)O[C@@H]21`, the GI50 was 11.3 µM in assay [1]; 4.39 µM in assay [2]; 6.44 µM in assay [3]; 1.86 µM in assay [4]; 2.34 µM in assay [5]; 2.02 µM in assay [6]. The GI50 in assay [8] was 5.98 µM; in assay [7], 2.42 µM. The TGI in assay [1] is 50.4 µM; in assay [2], 10.6 µM; in assay [3] it was 12.4 µM; in assay [4], 3.42 µM; in assay [5] it was 19.5 µM; in assay [6] it was 3.95 µM. For the same compound, the values for the TGI in assay [8] and in assay [7] were 11.1 µM and 6.02 µM, respectively.

Consider `C1C[OH+]CC[OH+]CC[OH+]CC[OH+]CC[OH+]CC[OH+]1.[Cl-].[Ta+5]`, for which the GI50 in assay [3] is above 100 µM; in assay [4] it was above 100 µM; in assay [5] it was above 100 µM; in assay [6] it was above 100 µM; in assay [7] it was 5.02 µM. For the same compound, the TGI in assay [3] is above 100 µM; in assay [4], above 100 µM; in assay [5], above 100 µM; in assay [6], above 100 µM; in assay [7] it was 30.3 µM.

For the compound `COc1ccc(-c2[nH]ncc2-c2cc(OC)c(OC)c(OC)c2)cc1`, the GI50 is below 0.01 µM in assay [1]; 0.0271 µM in assay [2]; 0.0103 µM in assay [3]; below 0.01 µM in assay [4]; 0.0132 µM in assay [5]; below 0.01 µM in assay [6]. In addition, in assay [7], the GI50 was below 0.01 µM. Also, the TGI in assay [1] is 7.24 µM; in assay [3], 26.7 µM; in assay [5], 16 µM; in assay [6] it was 17.8 µM; in assay [7], 11.2 µM.

Consider `CCOC(=O)c1cnc2c(cnn2CC)c1NN=C(C)C`, for which the GI50 was 24.1 µM in assay [1]; 45.1 µM in assay [2]; above 100 µM in assay [3]; 39.5 µM in assay [4]; 74.2 µM in assay [5]; 11.4 µM in assay [6]. Further, the GI50 was 29 µM in assay [8] and 23.2 µM in assay [7]. In addition, the TGI in assay [1] is 87.9 µM; in assay [2] it was above 100 µM; in assay [3], above 100 µM; in assay [4], above 100 µM; in assay [5], above 100 µM; in assay [6], 70 µM. Besides, the TGI in assay [8] and in assay [7] was above 100 µM throughout.

As for `CCC(C)CC(CC)NCCN1CCN(C(CC)CC(C)CC)C1=S` (stereo not given), the GI50 in assay [2] was 1.84 µM; in assay [3], 1.74 µM; in assay [4] it was 1.97 µM; in assay [5], 1.85 µM; in assay [6], 1.5 µM; in assay [8] it was 1.72 µM. Besides, the GI50 in assay [7] was 2.39 µM. Also, the TGI in assay [2] was 3.55 µM; in assay [3] it was 3.5 µM; in assay [4], 4.08 µM; in assay [5], 4.25 µM; in assay [6], 2.82 µM; in assay [8] it was 3.57 µM. The same compound gave a TGI in assay [7] of 8.68 µM.

Consider `COc1ccc2sc3c(NCCCNCCO)nc4ccccc4c3c(=O)c2c1`, for which the GI50 in assay [1] is 1.42 µM; in assay [2] it was 1.48 µM; in assay [3] it was 1.73 µM; in assay [4] it was 1.74 µM; in assay [5] it was 1.71 µM; in assay [6], 1.31 µM. Further, the GI50 in assay [7] is 1.56 µM. Moreover, the TGI was 3.48 µM in assay [1]; 2.95 µM in assay [2]; 3.27 µM in assay [3]; 3.21 µM in assay [4]; 3.86 µM in assay [5]; 2.7 µM in assay [6]. This compound also displayed a TGI in assay [7] of 2.99 µM.

With `COP1(=S)OCC2CCC[C@@H]2O1` (stereo not given in full), the TGI in assay [2], in assay [3], in assay [4], in assay [5], in assay [6] and in assay [8] was above 100 µM each time. In assay [7], this compound gave a TGI above 100 µM.

Turning to `COc1ccc(Nc2c[nH]c(=O)[nH]c2=O)cc1`, the TGI in assay [2], in assay [3], in assay [4], in assay [5], in assay [6] and in assay [8] was above 100 µM each time. In assay [7], the TGI is above 100 µM.

Turning to `CC(C)(CCC(C)(C)c1ccccc1)c1ccccc1`, the TGI in assay [1] came out at 53.4 µM; in assay [2] it was 31.5 µM; in assay [3], 33.9 µM; in assay [4] it was 31 µM; in assay [5], 36.1 µM; in assay [6], 27.5 µM. In addition, in assay [8], the TGI is 36.6 µM.

As for `C=CCNc1cccc2c1C(=O)c1ccccc1C2(O)CC=C` (stereo not given), the GI50 in assay [1] is 18.8 µM; in assay [2], 12.3 µM; in assay [3], 18.2 µM; in assay [5], 17.4 µM; in assay [8], 32.2 µM; in assay [7], 27.7 µM. Besides, the TGI in assay [1] was 43.5 µM; in assay [2], 28.3 µM; in assay [3] it was 45.7 µM; in assay [5], 44.6 µM; in assay [8], above 100 µM; in assay [7], above 100 µM.

For the compound `N#Cc1ccc2oc3ccc(C#N)cc3c(=O)c2c1`, the TGI is above 100 µM in assay [2]; 51.1 µM in assay [3]; 62.4 µM in assay [5]; 42.8 µM in assay [6]; above 100 µM in assay [8]; above 100 µM in assay [7].

Take `CS(=O)(=O)CS(=O)CS(=O)CS(=O)CC(NC(=O)CCC(N)C(=O)O)C(=O)O` (stereo not given): the TGI in assay [1], in assay [2], in assay [3], in assay [4], in assay [5] and in assay [8] was above 100 µM each time. Moreover, the TGI in assay [7] is above 100 µM.

For the compound `COc1cc2c3c(n(CCCNCCN4CCOCC4)c(=O)c2cc1OC)-c1cc2c(cc1C3=O)OCO2`, the GI50 in assay [1] was 2.94 µM and 16.9 µM; in assay [2], 2.18 µM; in assay [4] it was 0.528 µM and 0.6 µM; in assay [5], 0.122 µM and 0.0199 µM; in assay [8], 2.56 µM and 23.5 µM; in assay [7], 5.98 µM and 2.19 µM. Moreover, the TGI in assay [1] was 13.3 µM and 48 µM; in assay [2] it was 5.72 µM; in assay [3], 0.529 µM and 3.83 µM; in assay [4] it was 1.4 µM and 3.27 µM; in assay [5], 1.14 µM and 0.681 µM; in assay [8], 50 µM and 70.2 µM. In addition, the TGI in assay [7] is 15.2 µM and > 100 µM.

For `COC(=O)c1cc2c(cc1Cl)SC(N(N(C)C)S(=O)(=O)c1ccc(Cl)cc1)=NS2(=O)=O`, the GI50 in assay [1] was 18.8 µM; in assay [2], 17.1 µM; in assay [3], 19.7 µM; in assay [4], 13 µM; in assay [5] it was 17.1 µM; in assay [8], 8.42 µM. Further, in assay [7], the GI50 was 25.3 µM. Also, the TGI in assay [1] turned out to be 48.6 µM; in assay [2], 44 µM; in assay [3], 43.5 µM; in assay [4], 37.8 µM; in assay [5] it was 53.4 µM; in assay [8] it was 26.7 µM. In assay [7], this compound gave a TGI above 100 µM.

Regarding `O=[N+]([O-])c1ccc(O)c2ncccc12`, the TGI in assay [1] was above 100 µM; in assay [2], > 100 µM and 20.6 µM; in assay [3], > 100 µM and 28.9 µM; in assay [5], above 100 µM; in assay [6], > 100 µM and 18.2 µM; in assay [7], > 100 µM and 20.8 µM. The GI50 in assay [2] is 38.4 µM and 4.4 µM; in assay [8], 23 µM and 2.38 µM; in assay [7], 18.7 µM and 3.93 µM.

On to `Oc1ccc(SCc2ccc(NCc3ccccc3)cc2)cc1`, for which the TGI in assay [1] is above 100 µM; in assay [2] it was above 100 µM; in assay [3] it was above 100 µM; in assay [4] it was above 100 µM; in assay [6], 78.8 µM; in assay [8], 56.6 µM. In addition, in assay [7], the TGI came out at 56.5 µM.

Turning to `COc1ccc(-c2nn(-c3cccc(NC(=O)Nc4cccc(C(F)(F)F)c4)c3)cc2-c2ccncc2)cc1Cl`, the GI50 in assay [1] was 1.65 µM; in assay [2] it was 2.18 µM; in assay [3], 3.02 µM; in assay [5], 1.02 µM; in assay [6] it was 1.33 µM; in assay [8], 1.17 µM. The GI50 in assay [7] was 1.48 µM. The TGI is 7.84 µM in assay [1]; 19.8 µM in assay [2]; above 100 µM in assay [3]; 4.54 µM in assay [5]; 6.37 µM in assay [6]; 7.69 µM in assay [8]. Further, the TGI in assay [7] is above 100 µM.

As to `COc1ccc(-c2c(C#N)c(N)nc3c2CCCc2ccc(F)cc2-3)cc1OC`, the GI50 was below 0.0399 µM in assay [2]; 0.487 µM in assay [3]; below 0.01 µM in assay [4]; below 0.01 µM in assay [5]; 0.0586 µM in assay [6]; 22.3 µM in assay [8]. The GI50 in assay [7] was 0.148 µM. Besides, the TGI was 0.758 µM in assay [2]; above 100 µM in assay [3]; 1.61 µM in assay [5]; above 82.9 µM in assay [6]; above 100 µM in assay [8]; above 100 µM in assay [7].
